Marks after values point to notes of the source that are not given here.
Assays:
Assay type in all cases: in vivo
[1] = test system: Puccinia recondita f. sp. tritici (the causal agent of wheat leaf rust); assay: Test C: preventive spray on wheat seedlings, wheat leaf rust, visual disease rating; details: wheat seedlings
Method in brief: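 Wheat seedlings sprayed to run-off with compound in acetone/water (50/50) with 250 ppm PEG400, then inoculated with spores the following day. After 24 h saturated humidity at 20° C. and 6 days in growth chamber at 20° C., disease rated visually as % control relative to untreated controls.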

[2] = test system: Zymoseptoria tritici (the causal agent of wheat leaf blotch); assay: Test B: preventive spray on wheat seedlings, wheat leaf blotch, visual disease rating; details: wheat seedlings
Method in brief: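 This is a preventive test: spray application preceded Zymoseptoria tritici spore inoculation by one day. Test suspensions were in acetone/water with 250 ppm PEG400 surfactant, at the listed ppm rate. After 48 h saturated humidity at 24° C and 17 days at 20° C, visual ratings scored control from 0 to 100%.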

[3] = test system: Phakopsora pachyrhizi (the causal agent of Asian soybean rust); assay: Test A: preventive spray on soybean seedlings, Asian soybean rust, visual disease rating; details: soybean seedlings
Method in brief: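 Compound in acetone/water (50/50) with 250 ppm PEG400 sprayed to run-off on soybean seedlings; inoculated next day with Phakopsora pachyrhizi spores. Held 24 h at 22° C in saturated atmosphere, then 8 days in a 22° C growth chamber before visual rating as % disease control relative to controls.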

[4] = test suspension 100 ppm (** next to rating)
[5] = test suspension 10 ppm, 100 = 100% disease control, 0 = no control

CCOC(=O)C1CCN(Cc2ccc(-c3noc(C(F)(F)F)n3)cc2)C1 (stereo not drawn) [compound 124]
Test C disease control rating ([1]; test suspension 260 ppm): 100% | Test B disease control rating ([2]; test suspension 260 ppm): 50% | Test A disease control rating ([3]; test suspension 260 ppm): 100%

Fc1cccc2c1cnn2Cc1ccc(-c2noc(C(F)(F)F)n2)cc1 [compound 125]
Test C disease control rating ([1]; test suspension 260 ppm): 100% | Test B disease control rating ([2]; test suspension 260 ppm): 55% | Test A disease control rating ([3]; test suspension 260 ppm): 100%

FC(F)(F)c1nc(-c2ccc(Cn3ncc4cc(Br)ccc43)cc2)no1 [compound 128]
Test C disease control rating ([1]; test suspension 255 ppm): 100% | Test B disease control rating ([2]; test suspension 255 ppm): 19% | Test A disease control rating ([3]; test suspension 255 ppm): 100%

N#Cc1cn(Cc2ccc(-c3noc(C(F)(F)F)n3)cc2)c2ccccc12 [compound 129]
Test C disease control rating ([1]; test suspension 260 ppm): 89% | Test B disease control rating ([2]; test suspension 260 ppm): 0% | Test A disease control rating ([3]; test suspension 260 ppm): 100%

Fc1cccc2nn(Cc3ccc(-c4noc(C(F)(F)F)n4)cc3)cc12 [compound 130]
Test C disease control rating ([1]; test suspension 260 ppm): 100% | Test B disease control rating ([2]; test suspension 260 ppm): 89% | Test A disease control rating ([3]; test suspension 260 ppm): 100%

Cc1cc(C(F)(F)F)nn1Cc1ccc(-c2noc(C(F)(F)F)n2)cc1 [compound 132]
Test C disease control rating ([1]; test suspension 270 ppm): 95% | Test B disease control rating ([2]; test suspension 270 ppm): 0% | Test A disease control rating ([3]; test suspension 270 ppm): 100%

FC(F)(F)c1nc(-c2ccc(Cn3cc4cc(Br)ccc4n3)cc2)no1 [compound 133]
Test C disease control rating ([1]; test suspension 255 ppm): 100% | Test B disease control rating ([2]; test suspension 255 ppm): 59% | Test A disease control rating ([3]; test suspension 255 ppm): 100%

COC(=O)c1nn(Cc2ccc(-c3noc(C(F)(F)F)n3)cc2)c2ccccc12 [compound 134]
Test C disease control rating ([1]; test suspension 255 ppm): 80% | Test B disease control rating ([2]; test suspension 255 ppm): 0% | Test A disease control rating ([3]; test suspension 255 ppm): 100%

COC(=O)c1nncn1Cc1ccc(-c2noc(C(F)(F)F)n2)cc1 [compound 138]
Test C disease control rating ([1]; test suspension 260 ppm): 100% | Test B disease control rating ([2]; test suspension 260 ppm): 96% | Test A disease control rating ([3]; test suspension 260 ppm): 100%

COC(=O)c1ncn(Cc2ccc(-c3noc(C(F)(F)F)n3)cc2)n1 [compound 139]
Test C disease control rating ([1]; test suspension 255 ppm): 100% | Test B disease control rating ([2]; test suspension 255 ppm): 62% | Test A disease control rating ([3]; test suspension 255 ppm): 100%

FC(F)(F)c1nc(-c2ccc(Cn3ccc(-c4ccccc4Cl)n3)cc2)no1 [compound 142]
Test C disease control rating ([1]; test suspension 250 ppm): 100% | Test B disease control rating ([2]; test suspension 250 ppm): 57% | Test A disease control rating ([3]; test suspension 250 ppm): 100%

FC(F)(F)c1nc(-c2ccc(Cn3ncc4ccccc43)cc2)no1 [compound 143]
Test C disease control rating ([1]; test suspension 250 ppm): 100% | Test B disease control rating ([2]; test suspension 250 ppm): 71% | Test A disease control rating ([3]; test suspension 250 ppm): 100%

FC(F)(F)c1cc(C(F)(F)F)n(Cc2ccc(-c3noc(C(F)(F)F)n3)cc2)n1 [compound 144]
Test C disease control rating ([1]; test suspension 250 ppm): 0% | Test B disease control rating ([2]; test suspension 250 ppm): 0% | Test A disease control rating ([3]; test suspension 250 ppm): 36%

Cc1cc(C)n(Cc2ccc(-c3noc(C(F)(F)F)n3)cc2)n1 [compound 145]
Test C disease control rating ([1]; test suspension 250 ppm): 100% | Test B disease control rating ([2]; test suspension 250 ppm): 0% | Test A disease control rating ([3]; test suspension 250 ppm): 100%

FC(F)(F)c1nc(-c2ccc(Cn3cc(Br)c(-c4ccccc4Cl)n3)cc2)no1 [compound 146]
Test C disease control rating ([1]; test suspension 250 ppm): 0% | Test B disease control rating ([2]; test suspension 250 ppm): 0% | Test A disease control rating ([3]; test suspension 250 ppm): 100%

FC(F)(F)c1nc(-c2ccc(CN3CCC4(CC3)OCCO4)cc2)no1 [compound 149]
Test C disease control rating ([1]; test suspension 260 ppm): 100% | Test B disease control rating ([2]; test suspension 260 ppm): 72% | Test A disease control rating ([3]; test suspension 260 ppm): 100%

O=C1CCN(Cc2ccc(-c3noc(C(F)(F)F)n3)cc2)CC1 [compound 150]
Test C disease control rating ([1]; test suspension 255 ppm): 100% | Test B disease control rating ([2]; test suspension 255 ppm): 19% | Test A disease control rating ([3]; test suspension 255 ppm): 100%

FC(F)(F)c1ccn(Cc2ccc(-c3noc(C(F)(F)F)n3)cc2)n1 [compound 153]
Test C disease control rating ([1]; test suspension 250 ppm): 89% | Test B disease control rating ([2]; test suspension 250 ppm): 0% | Test A disease control rating ([3]; test suspension 250 ppm): 100%

O=c1sc2ccccc2n1Cc1ccc(-c2noc(C(F)(F)F)n2)cc1 [compound 156]
Test C disease control rating ([1]; test suspension 255 ppm): 100% | Test B disease control rating ([2]; test suspension 255 ppm): 86% | Test A disease control rating ([3]; test suspension 255 ppm): 100%

O=C1N(Cc2ccc(-c3noc(C(F)(F)F)n3)cc2)c2ccccc2C1(F)F [compound 161]
Test C disease control rating ([1]; test suspension 265 ppm): 99% | Test B disease control rating ([2]; test suspension 265 ppm): 33% | Test A disease control rating ([3]; test suspension 265 ppm): 100%

FC(F)(F)c1nc(-c2ccc(Cn3cccn3)cc2)no1 [compound 162]
Test C disease control rating ([1]; test suspension 250 ppm): 100% | Test B disease control rating ([2]; test suspension 250 ppm): 0% | Test A disease control rating ([3]; test suspension 250 ppm): 100%

FC(F)(F)c1nc(-c2ccc(Cn3cc(Br)cn3)cc2)no1 [compound 163]
Test C disease control rating ([1]; test suspension 250 ppm): 100% | Test B disease control rating ([2]; test suspension 250 ppm): 0% | Test A disease control rating ([3]; test suspension 250 ppm): 100%

NC(=O)C1=NOC(Cc2ccc(-c3noc(C(F)(F)F)n3)cc2)C1 (stereo not drawn) [compound 164]
Test C disease control rating ([1]; test suspension 250 ppm): 100% | Test B disease control rating ([2]; test suspension 250 ppm): 88% | Test A disease control rating ([3]; test suspension 250 ppm): 100%

CNC(=O)C1=NOC(Cc2ccc(-c3noc(C(F)(F)F)n3)cc2)C1 (stereo not drawn) [compound 165]
Test C disease control rating ([1]; test suspension 260 ppm): 100% | Test B disease control rating ([2]; test suspension 260 ppm): 95% | Test A disease control rating ([3]; test suspension 260 ppm): 100%

C=CCOC(=O)c1cnn(Cc2ccc(-c3noc(C(F)(F)F)n3)cc2)c1 [compound 166]
Test C disease control rating ([1]; test suspension 10 ppm): 100% | Test B disease control rating [2, 4]: 90** % | Test A disease control rating [3, 5]: 100%

C=C(C)COC(=O)c1cnn(Cc2ccc(-c3noc(C(F)(F)F)n3)cc2)c1 [compound 170]
Test C disease control rating ([1]; test suspension 10 ppm): 100% | Test B disease control rating [2, 4]: 97** % | Test A disease control rating [3, 5]: 100%

CC(C)COC(=O)c1cnn(Cc2ccc(-c3noc(C(F)(F)F)n3)cc2)c1 [compound 171]
Test C disease control rating ([1]; test suspension 10 ppm): 100% | Test B disease control rating [2, 4]: 37** % | Test A disease control rating [3, 5]: 100%

CCNC(=O)C1=NOC(Cc2ccc(-c3noc(C(F)(F)F)n3)cc2)C1 (stereo not drawn) [compound 175]
Test C disease control rating ([1]; test suspension 255 ppm): 100% | Test B disease control rating ([2]; test suspension 255 ppm): 95% | Test A disease control rating ([3]; test suspension 255 ppm): 100%

C#CCNC(=O)C1=NOC(Cc2ccc(-c3noc(C(F)(F)F)n3)cc2)C1 (stereo not drawn) [compound 176]
Test C disease control rating ([1]; test suspension 250 ppm): 100% | Test B disease control rating ([2]; test suspension 250 ppm): 92% | Test A disease control rating ([3]; test suspension 250 ppm): 100%

O=C(C1=NOC(Cc2ccc(-c3noc(C(F)(F)F)n3)cc2)C1)N1CCC1 (stereo not drawn) [compound 177]
Test C disease control rating ([1]; test suspension 250 ppm): 100% | Test B disease control rating ([2]; test suspension 250 ppm): 97% | Test A disease control rating ([3]; test suspension 250 ppm): 100%

FC(F)(F)c1nc(-c2ccc(CNC3CC3)s2)no1 [compound 191]
Test C disease control rating ([1]; test suspension 50 ppm): 100% | Test B disease control rating ([2]; test suspension 250 ppm): 96* % | Test A disease control rating ([3]; test suspension 50 ppm): 100%

CCOC(=O)c1cnn(Cc2csc(-c3noc(C(F)(F)F)n3)c2)c1 [compound 193]
Test C disease control rating ([1]; test suspension 50 ppm): 100% | Test B disease control rating ([2]; test suspension 250 ppm): 28* % | Test A disease control rating ([3]; test suspension 50 ppm): 100%

CCOC(=O)c1csc(Cc2ccc(-c3noc(C(F)(F)F)n3)s2)n1 [compound 201]
Test C disease control rating ([1]; test suspension 250 ppm): 100% | Test B disease control rating ([2]; test suspension 250 ppm): 28% | Test A disease control rating ([3]; test suspension 250 ppm): 100%

O=C(NCC1CC1)c1csc(Cc2ccc(-c3noc(C(F)(F)F)n3)s2)n1 [compound 202]
Test C disease control rating ([1]; test suspension 250 ppm): 100% | Test B disease control rating ([2]; test suspension 250 ppm): 83% | Test A disease control rating ([3]; test suspension 250 ppm): 100%

CCOC(=O)c1cnn(Cc2ccc(-c3noc(C(F)(F)F)n3)o2)c1 [compound 210]
Test C disease control rating ([1]; test suspension 50 ppm): 99% | Test B disease control rating ([2]; test suspension 250 ppm): 63* % | Test A disease control rating ([3]; test suspension 50 ppm): 100%

CCCOC(=O)c1cnn(Cc2ccc(-c3noc(C(F)(F)F)n3)o2)c1 [compound 211]
Test C disease control rating ([1]; test suspension 50 ppm): 100% | Test B disease control rating ([2]; test suspension 250 ppm): 70* % | Test A disease control rating ([3]; test suspension 50 ppm): 100%

O=C(NCC(F)(F)F)c1cnn(COc2ccc(-c3noc(C(F)(F)F)n3)cc2)c1 [compound 212]
Test C disease control rating ([1]; test suspension 10 ppm): 100% | Test B disease control rating ([2]; test suspension 250 ppm): 79* % | Test A disease control rating [3, 5]: 100%
